Values joined by “and” are separate entries in the source; they are usually repeats but may differ in a detail not shown here. Equal values may be shown once. Toxic doses and inconclusive results are not listed. Rule as the data show it: active = T/C of 150% or more; inactive = T/C below 125%.
Test system: L1210 leukemia ip in BDF1 mice, survival T/C
Assay: NCI In Vivo Anticancer Drug Screen. Data for tumor model L1210 Leukemia (intraperitoneal) in B6D2F1 (BDF1) mice
Conditions: endpoint: mean survival time, higher = longer survival
Procedure, shortened: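 In this screen, tumor-bearing mice given compound are compared to those given vehicle, and their survival values are reported as a treated-to-control quotient.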

[1] = dose: 100.0 mg/kg/injection, schedule: Q01DX009 (ip), vehicle: Klucel (hydroxypropylcellulose) (HPC)
[2] = dose: 200.0 mg/kg/injection, schedule: Q01DX009 (ip), vehicle: Klucel (hydroxypropylcellulose) (HPC)
[3] = dose: 400.0 mg/kg/injection, schedule: Q01DX009 (ip), vehicle: Klucel (hydroxypropylcellulose) (HPC)

Measured: T/C

O=[N+]([O-])c1ccc(N2CCCC2)nc1
inactive: dose: 100.0 mg/kg/injection, schedule: Q01DX001 (ip), vehicle: saline with Tween-80 107 % of control | dose: 200.0 mg/kg/injection, schedule: Q01DX001 (ip), vehicle: saline with Tween-80 93 % of control | dose: 400.0 mg/kg/injection, schedule: Q01DX001 (ip), vehicle: saline with Tween-80 100 % of control

CCCCCCCCCCCCOc1ccc(C(C)(C)C)cc1
inactive: dose: 100.0 mg/kg/injection, schedule: Q01DX007 (ip), vehicle: saline with Tween-80 97 % of control | dose: 100.0 mg/kg/injection, schedule: Q04DX003 (ip), vehicle: saline with Tween-80 100 % of control | dose: 200.0 mg/kg/injection, schedule: Q01DX007 (ip), vehicle: saline with Tween-80 96 % of control | dose: 200.0 mg/kg/injection, schedule: Q04DX003 (ip), vehicle: saline with Tween-80 95 % of control | dose: 400.0 mg/kg/injection, schedule: Q01DX007 (ip), vehicle: saline with Tween-80 97 % of control | dose: 400.0 mg/kg/injection, schedule: Q04DX003 (ip), vehicle: saline with Tween-80 101 % of control

Oc1ccccc1C=Nc1cccc2c(N=Cc3ccccc3O)cccc12
inactive: dose: 50.0 mg/kg/injection, schedule: Q04DX003 (ip), vehicle: other 89 % of control | dose: 100.0 mg/kg/injection, schedule: Q01DX001 (ip), vehicle: saline 86 % of control | dose: 100.0 mg/kg/injection, schedule: Q04DX003 (ip), vehicle: other 86 % of control | dose: 200.0 mg/kg/injection, schedule: Q01DX001 (ip), vehicle: saline 88 % of control | dose: 200.0 mg/kg/injection, schedule: Q04DX003 (ip), vehicle: other 86 % of control | dose: 400.0 mg/kg/injection, schedule: Q01DX001 (ip), vehicle: saline 86 % of control

Cc1ccc(C(C)C)c(Oc2cc(C)ccc2C(C)C)c1
inactive: [1] 98 % of control | dose: 100.0 mg/kg/injection, schedule: Q04DX003 (ip), vehicle: Klucel (hydroxypropylcellulose) (HPC) 97 % of control | [2] 102 % of control | dose: 200.0 mg/kg/injection, schedule: Q04DX003 (ip), vehicle: Klucel (hydroxypropylcellulose) (HPC) 93 % of control | [3] 108 % of control | dose: 400.0 mg/kg/injection, schedule: Q04DX003 (ip), vehicle: Klucel (hydroxypropylcellulose) (HPC) 93 % of control

Cc1cccc(OC(=O)Nc2ccccc2C)c1
inactive: dose: 100.0 mg/kg/injection, schedule: Q04DX002 (ip), vehicle: Klucel (hydroxypropylcellulose) (HPC) 103 % of control | dose: 200.0 mg/kg/injection, schedule: Q04DX002 (ip), vehicle: Klucel (hydroxypropylcellulose) (HPC) 118 % of control | dose: 400.0 mg/kg/injection, schedule: Q04DX002 (ip), vehicle: Klucel (hydroxypropylcellulose) (HPC) 100 % of control

O=C(O)c1nc(SCc2ccccc2)n(Cc2ccccc2)c1C(=O)O
inactive: dose: 100.0 mg/kg/injection, schedule: Q04DX002 (ip), vehicle: carboxymethylcellulose (CMC) 97 % of control and 89 % of control | dose: 100.0 mg/kg/injection, schedule: Q04DX003 (ip), vehicle: carboxymethylcellulose (CMC) 94 % of control and 97 % of control | dose: 200.0 mg/kg/injection, schedule: Q04DX002 (ip), vehicle: carboxymethylcellulose (CMC) 94 % of control and 115 % of control | dose: 200.0 mg/kg/injection, schedule: Q04DX003 (ip), vehicle: carboxymethylcellulose (CMC) 97 % of control and 98 % of control | dose: 400.0 mg/kg/injection, schedule: Q04DX002 (ip), vehicle: carboxymethylcellulose (CMC) 97 % of control and 87 % of control | dose: 400.0 mg/kg/injection, schedule: Q04DX003 (ip), vehicle: carboxymethylcellulose (CMC) 96 % of control

CCCNC(=O)Nc1ccc(Nc2ccccc2)cc1
inactive: [1] 105 % of control | [2] 103 % of control | [3] 94 % of control

— PubChem BioAssay AID248 (DTP/NCI, 2004)
